In US20250333407A1, “Compounds and Their Use for Treatment of Hemoglobinopathies” (Bristol-Myers Squibb Company, priority 2024, published 2025):

Columns and labels:
Type in all cases: cell-based
HbF = HbF HiBiT induction assay in HUDEP-2 cells; details: HUDEP-2 cells with HiBiT tag in HBG1/2, 72 hours of treatment; area under the dose response curve, higher AUC = greater HbF induction
Procedure, shortened: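 HUDEP-2 cells carrying a HiBiT tag on HBG1/2 were exposed to compounds for 72 h at 37° C, 5% CO2, in IMDM with EPO, hSCF, DOX, transferrin, insulin, heparin and 5% human plasma. HiBiT luminescence was read after lytic detection; HbF induction is expressed as dose-response AUC, alongside EC50 and Ymax.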

WIZ = biological target: T1, WIZ (Homo sapiens, UniProt O95785+Q96SW2); assay: HUDEP-2 WIZ HiBiT degradation assay; details: HiBiT-tagged WIZ degradation in HUDEP-2 cells, 24 hours of treatment; read-out: WIZ EC50
T1 construct: HUDEP-2 cells engineered to express a HiBiT tag in either the WIZ (Widely interspaced zinc finger) or ZBTB7A
Procedure, shortened: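 HiBiT-tagged HUDEP-2 cells at 1.0×10^6 cells/ml in SFEM II with SCF, EPO, dexamethasone and doxycycline, treated 24 h at 37 °C with a 10-point series ([…]). Luminescence after HiBiT lytic detection, normalized to DMSO; EC50 and Y-min from fitted curves.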

ZBTB7A = biological target: T2, ZBTB7A (Homo sapiens, UniProt O95365+Q96SW2); assay: HUDEP-2 ZBTB7A HiBiT degradation assay; details: HiBiT-tagged ZBTB7A degradation in HUDEP-2 cells, 24 hours of treatment; read-out: ZBTB7A EC50
T2 construct: HUDEP-2 cells engineered to express a HiBiT tag in either the WIZ (Widely interspaced zinc finger) or ZBTB7A
Procedure, shortened: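 HiBiT-tagged HUDEP-2 cells were pre-cultured 48 h in IMDM with EPO, SCF, doxycycline and 5% human plasma, then exposed to compounds at 1.0×10^6 cells/ml for 24 h at 37 °C. Nano-Glo HiBiT lytic luminescence, normalised to DMSO over 10 concentrations, gave EC50 and Y-min.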

T1 sequence (O95785 whole entry): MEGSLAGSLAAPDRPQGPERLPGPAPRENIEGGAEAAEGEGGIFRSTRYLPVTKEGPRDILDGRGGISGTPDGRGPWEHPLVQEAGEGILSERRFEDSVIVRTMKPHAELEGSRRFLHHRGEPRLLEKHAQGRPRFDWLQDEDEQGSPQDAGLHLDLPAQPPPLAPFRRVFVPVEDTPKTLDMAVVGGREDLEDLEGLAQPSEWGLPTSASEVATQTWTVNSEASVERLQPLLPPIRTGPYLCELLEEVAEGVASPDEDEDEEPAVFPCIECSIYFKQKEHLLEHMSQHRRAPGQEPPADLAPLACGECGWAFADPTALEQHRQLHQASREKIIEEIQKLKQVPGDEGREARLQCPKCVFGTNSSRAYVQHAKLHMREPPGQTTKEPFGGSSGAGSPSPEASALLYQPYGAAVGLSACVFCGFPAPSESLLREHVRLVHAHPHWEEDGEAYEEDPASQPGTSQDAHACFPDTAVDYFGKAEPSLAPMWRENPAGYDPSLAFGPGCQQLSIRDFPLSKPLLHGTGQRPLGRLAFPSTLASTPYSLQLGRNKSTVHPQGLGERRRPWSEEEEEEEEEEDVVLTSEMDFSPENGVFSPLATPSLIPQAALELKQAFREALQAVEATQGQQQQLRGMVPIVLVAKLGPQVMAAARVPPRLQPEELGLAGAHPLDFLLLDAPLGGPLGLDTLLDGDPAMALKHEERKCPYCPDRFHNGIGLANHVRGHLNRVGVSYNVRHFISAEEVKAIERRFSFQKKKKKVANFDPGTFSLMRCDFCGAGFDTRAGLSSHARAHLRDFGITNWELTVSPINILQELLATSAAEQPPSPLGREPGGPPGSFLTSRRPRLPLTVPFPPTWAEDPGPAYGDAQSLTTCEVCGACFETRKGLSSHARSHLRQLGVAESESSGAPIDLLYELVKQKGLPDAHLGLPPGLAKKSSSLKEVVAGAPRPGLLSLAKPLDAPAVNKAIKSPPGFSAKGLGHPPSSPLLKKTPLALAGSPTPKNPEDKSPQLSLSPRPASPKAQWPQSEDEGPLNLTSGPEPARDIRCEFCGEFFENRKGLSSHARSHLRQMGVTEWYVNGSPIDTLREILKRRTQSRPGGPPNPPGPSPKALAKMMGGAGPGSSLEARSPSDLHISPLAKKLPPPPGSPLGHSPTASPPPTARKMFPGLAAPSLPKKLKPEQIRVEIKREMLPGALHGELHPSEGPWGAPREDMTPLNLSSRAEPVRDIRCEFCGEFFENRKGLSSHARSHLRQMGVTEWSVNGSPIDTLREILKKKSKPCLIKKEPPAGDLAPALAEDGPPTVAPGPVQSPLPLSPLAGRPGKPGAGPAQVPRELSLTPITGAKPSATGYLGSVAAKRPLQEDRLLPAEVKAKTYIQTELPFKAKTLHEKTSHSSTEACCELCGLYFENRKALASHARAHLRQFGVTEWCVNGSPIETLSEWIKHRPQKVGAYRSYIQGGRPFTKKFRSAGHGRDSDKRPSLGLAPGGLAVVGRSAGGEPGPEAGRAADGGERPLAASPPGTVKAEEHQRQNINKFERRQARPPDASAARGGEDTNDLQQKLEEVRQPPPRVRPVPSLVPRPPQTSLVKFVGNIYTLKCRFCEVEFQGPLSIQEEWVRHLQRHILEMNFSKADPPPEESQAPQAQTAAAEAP
T1 sequence (Q96SW2 whole entry): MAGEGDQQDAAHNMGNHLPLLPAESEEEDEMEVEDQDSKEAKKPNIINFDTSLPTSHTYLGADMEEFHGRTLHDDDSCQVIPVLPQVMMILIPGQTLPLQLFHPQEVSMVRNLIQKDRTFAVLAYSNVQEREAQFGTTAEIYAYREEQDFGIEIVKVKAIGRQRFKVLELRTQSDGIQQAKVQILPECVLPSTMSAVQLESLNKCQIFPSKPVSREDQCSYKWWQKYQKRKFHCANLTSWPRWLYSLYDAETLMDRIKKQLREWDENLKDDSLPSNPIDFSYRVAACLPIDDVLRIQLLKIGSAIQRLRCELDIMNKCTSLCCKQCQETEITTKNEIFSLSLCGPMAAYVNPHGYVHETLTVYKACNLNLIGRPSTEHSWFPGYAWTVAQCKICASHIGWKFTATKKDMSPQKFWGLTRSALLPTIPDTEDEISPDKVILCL
T1 sequence (Q16531 whole entry partner): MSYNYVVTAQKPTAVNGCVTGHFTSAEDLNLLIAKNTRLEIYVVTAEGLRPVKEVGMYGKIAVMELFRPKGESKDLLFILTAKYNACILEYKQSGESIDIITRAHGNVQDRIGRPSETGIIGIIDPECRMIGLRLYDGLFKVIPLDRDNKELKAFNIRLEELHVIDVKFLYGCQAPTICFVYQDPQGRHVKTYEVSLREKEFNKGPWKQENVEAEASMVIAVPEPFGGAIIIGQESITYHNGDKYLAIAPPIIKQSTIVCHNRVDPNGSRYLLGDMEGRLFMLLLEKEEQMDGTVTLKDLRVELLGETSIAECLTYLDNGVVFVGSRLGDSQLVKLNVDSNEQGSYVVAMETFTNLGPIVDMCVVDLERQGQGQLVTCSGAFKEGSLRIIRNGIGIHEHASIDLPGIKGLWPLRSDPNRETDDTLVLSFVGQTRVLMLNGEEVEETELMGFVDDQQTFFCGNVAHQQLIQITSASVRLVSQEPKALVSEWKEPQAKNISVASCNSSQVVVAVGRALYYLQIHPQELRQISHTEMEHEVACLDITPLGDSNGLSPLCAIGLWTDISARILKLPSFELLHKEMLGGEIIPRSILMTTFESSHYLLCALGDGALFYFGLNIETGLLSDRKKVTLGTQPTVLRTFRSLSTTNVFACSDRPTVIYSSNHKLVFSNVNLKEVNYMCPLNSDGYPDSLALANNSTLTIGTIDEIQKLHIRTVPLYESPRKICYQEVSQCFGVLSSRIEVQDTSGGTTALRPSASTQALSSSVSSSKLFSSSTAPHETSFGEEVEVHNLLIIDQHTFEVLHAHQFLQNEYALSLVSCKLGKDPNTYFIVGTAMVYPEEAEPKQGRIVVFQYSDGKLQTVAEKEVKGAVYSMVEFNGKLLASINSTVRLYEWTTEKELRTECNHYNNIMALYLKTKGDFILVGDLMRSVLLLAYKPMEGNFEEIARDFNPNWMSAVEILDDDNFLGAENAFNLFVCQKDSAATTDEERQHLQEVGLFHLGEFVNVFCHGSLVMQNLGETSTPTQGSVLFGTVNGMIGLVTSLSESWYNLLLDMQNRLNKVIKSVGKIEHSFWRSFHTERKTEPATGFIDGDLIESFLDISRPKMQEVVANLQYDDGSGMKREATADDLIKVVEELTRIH
T2 sequence (O95365 whole entry): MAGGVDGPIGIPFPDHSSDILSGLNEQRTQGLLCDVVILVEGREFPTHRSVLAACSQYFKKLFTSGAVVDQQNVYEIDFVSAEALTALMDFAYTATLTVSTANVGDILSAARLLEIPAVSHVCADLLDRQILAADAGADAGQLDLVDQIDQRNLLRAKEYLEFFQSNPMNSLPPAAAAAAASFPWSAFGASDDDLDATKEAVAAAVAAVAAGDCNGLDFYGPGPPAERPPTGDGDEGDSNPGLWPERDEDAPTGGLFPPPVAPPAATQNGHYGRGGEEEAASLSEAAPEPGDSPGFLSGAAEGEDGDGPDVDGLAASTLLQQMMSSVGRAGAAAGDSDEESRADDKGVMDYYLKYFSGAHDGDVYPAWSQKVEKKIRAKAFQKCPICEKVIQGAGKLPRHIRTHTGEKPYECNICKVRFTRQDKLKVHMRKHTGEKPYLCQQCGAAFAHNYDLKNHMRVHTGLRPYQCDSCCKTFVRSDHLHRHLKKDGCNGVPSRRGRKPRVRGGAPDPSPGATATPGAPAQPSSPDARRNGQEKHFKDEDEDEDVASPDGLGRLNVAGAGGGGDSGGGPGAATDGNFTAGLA
T2 sequence (Q96SW2 whole entry): as the sequence (Q96SW2 whole entry) above
T2 sequence (Q16531 whole entry partner): as the sequence (Q16531 whole entry partner) above

SMILES | DC50 (WIZ) | DC50 (ZBTB7A) | HBF AUC (HbF)
Cc1cncc(-c2c(Nc3cccc4c3C(=O)N([C@H]3CCC(=O)NC3=O)C4=O)cc3c(c2F)OCC(=O)N3C)c1 [Compound 69, (S)-2-(2,6-dioxopiperidin-3-yl)-4-((8-fluoro-4-methyl-7-(5-methylpyridin-3-yl)-3-oxo-3,4-dihydro-2H-benzo[b][1,4]oxazin-6-yl)amino)isoindoline-1,3-dione] | 20 nM | 54 nM | + (+ = 15 ≤ AUC < 100)
Cc1cc(-c2cc3c(cc2Nc2cccc4c2C(=O)N([C@H]2CCC(=O)NC2=O)C4=O)N(C)C(=O)OC3C)ccn1 (stereo partly drawn) [Compound 70, 4-((1,4-dimethyl-6-(2-methylpyridin-4-yl)-2-oxo-1,4-dihydro-2H-benzo[d][1,3]oxazin-7-yl)amino)-2-((S)-2,6-dioxopiperidin-3-yl)isoindoline-1,3-dione] | 19 nM | 15 nM | ++ (++ = 100 ≤ AUC < 150)
COc1ccc(-c2cc3c(cc2Nc2cccc4c2C(=O)N([C@H]2CCC(=O)NC2=O)C4=O)N(C)C(=O)O[C@H]3C)cc1F [Compound 71, 2-((S)-2,6-dioxopiperidin-3-yl)-4-(((S)-6-(3-fluoro-4-methoxyphenyl)-1,4-dimethyl-2-oxo-1,4-dihydro-2H-benzo[d][1,3]oxazin-7-yl)amino)isoindoline-1,3-dione] | 16 nM | 10 nM | ++ (++ = 100 ≤ AUC < 150)
CC(=O)N1CCC(c2cc3c(cc2Nc2cccc4c2C(=O)N([C@H]2CCC(=O)NC2=O)C4=O)N(C)C(=O)OC3C)CC1 (stereo partly drawn) [Compound 75, 4-((6-(1-acetylpiperidin-4-yl)-1,4-dimethyl-2-oxo-1,4-dihydro-2H-benzo[d][1,3]oxazin-7-yl)amino)-2-((S)-2,6-dioxopiperidin-3-yl)isoindoline-1,3-dione] | 37 nM | 75 nM | ++ (++ = 100 ≤ AUC < 150)
COc1cc(-c2c(Nc3cccc4c3C(=O)N([C@H]3CCC(=O)NC3=O)C4=O)cc3c(c2F)OCC(=O)N3C)c(F)cn1 [Compound 76, 2-((S)-2,6-dioxopiperidin-3-yl)-4-((8-fluoro-7-(5-fluoro-2-methoxypyridin-4-yl)-4-methyl-3-oxo-3,4-dihydro-2H-benzo[b][1,4]oxazin-6-yl)amino)isoindoline-1,3-dione] | 22 nM | 65 nM | + (+ = 15 ≤ AUC < 100)
Cc1cc(-c2c(Nc3cccc4c3C(=O)N(C3CCC(=O)NC3=O)C4=O)cc3c(c2F)OCC(=O)N3C)cc(C(F)F)n1 (stereo not drawn) [Compound 77, 4-((7-(2-(difluoromethyl)-6-methylpyridin-4-yl)-8-fluoro-4-methyl-3-oxo-3,4-dihydro-2H-benzo[b][1,4]oxazin-6-yl)amino)-2-(2,6-dioxopiperidin-3-yl)isoindoline-1,3-dione] | 112 nM | 102 nM | + (+ = 15 ≤ AUC < 100)
Cc1cc(-c2c(Nc3cccc4c3C(=O)N(C3CCC(=O)NC3=O)C4=O)cc3c(c2F)OCC(=O)N3C)cc(C(F)F)n1 (stereo not drawn) [Compound 78, 4-((7-(2-(difluoromethyl)-6-methylpyridin-4-yl)-8-fluoro-4-methyl-3-oxo-3,4-dihydro-2H-benzo[b][1,4]oxazin-6-yl)amino)-2-(2,6-dioxopiperidin-3-yl)isoindoline-1,3-dione] | 76 nM | 70 nM | ++ (++ = 100 ≤ AUC < 150)
Cc1cc(-c2c(Nc3cccc4c3C(=O)N([C@H]3CCC(=O)NC3=O)C4=O)cc3c(c2F)C(C)OC(=O)N3C)ccn1 (stereo partly drawn) [Compound 79, 2-((S)-2,6-dioxopiperidin-3-yl)-4-((5-fluoro-1,4-dimethyl-6-(2-methylpyridin-4-yl)-2-oxo-1,4-dihydro-2H-benzo[d][1,3]oxazin-7-yl)amino)isoindoline-1,3-dione] | 27 nM | 28 nM | + (+ = 15 ≤ AUC < 100)
Cc1cc(-c2c(Nc3cccc4c3C(=O)N(C3CCC(=O)NC3=O)C4=O)cc3c(c2F)OCC(=O)N3C)ccn1 (stereo not drawn) [Compound 80, 2-(2,6-dioxopiperidin-3-yl)-4-((8-fluoro-4-methyl-7-(2-methylpyridin-4-yl)-3-oxo-3,4-dihydro-2H-benzo[b][1,4]oxazin-6-yl)amino)isoindoline-1,3-dione] | 29 nM | 38 nM | ++ (++ = 100 ≤ AUC < 150)
Cc1cc(-c2c(Nc3cccc4c3C(=O)N(C3CCC(=O)NC3=O)C4=O)cc3c(c2F)OCC(=O)N3C)ccn1 (stereo not drawn) [Compound 81, 2-(2,6-dioxopiperidin-3-yl)-4-((8-fluoro-4-methyl-7-(2-methylpyridin-4-yl)-3-oxo-3,4-dihydro-2H-benzo[b][1,4]oxazin-6-yl)amino)isoindoline-1,3-dione] | 24 nM | 28 nM | ++ (++ = 100 ≤ AUC < 150)
Cc1cc(-c2c(Nc3cccc4c3C(=O)N([C@H]3CCC(=O)NC3=O)C4=O)cc3c(c2F)[C@@H](C)OC(=O)N3C)c(F)cn1 [Compound 82, 2-((S)-2,6-dioxopiperidin-3-yl)-4-(((4R)-5-fluoro-6-(5-fluoro-2-methylpyridin-4-yl)-1,4-dimethyl-2-oxo-1,4-dihydro-2H-benzo[d][1,3]oxazin-7-yl)amino)isoindoline-1,3-dione] | 54 nM | 19 nM | ++ (++ = 100 ≤ AUC < 150)

Now those with a lower DC50 (WIZ), led by results:

DC50 (WIZ) | DC50 (ZBTB7A) | SMILES | HBF AUC (HbF)
14 nM | 21 nM | Cc1cc(-c2cc3c(cc2Nc2cccc4c2C(=O)N([C@H]2CCC(=O)NC2=O)C4=O)N(C)C(=O)OC3C)cc(C)n1 (stereo partly drawn) [Compound 72, 4-((6-(2,6-dimethylpyridin-4-yl)-1,4-dimethyl-2-oxo-1,4-dihydro-2H-benzo[d][1,3]oxazin-7-yl)amino)-2-((S)-2,6-dioxopiperidin-3-yl)isoindoline-1,3-dione] | +++ (+++ = AUC ≥ 150)
12 nM | 11 nM | Cc1cc(-c2cc3c(cc2Nc2cccc4c2C(=O)N([C@H]2CCC(=O)NC2=O)C4=O)N(C)C(=O)O[C@H]3C)c(F)cn1 [Compound 73, 2-((S)-2,6-dioxopiperidin-3-yl)-4-(((S)-6-(5-fluoro-2-methylpyridin-4-yl)-1,4-dimethyl-2-oxo-1,4-dihydro-2H-benzo[d][1,3]oxazin-7-yl)amino)isoindoline-1,3-dione] | ++ (++ = 100 ≤ AUC < 150)
11 nM | 10 nM | Cc1cc(-c2cc3c(cc2Nc2cccc4c2C(=O)N([C@H]2CCC(=O)NC2=O)C4=O)N(C)C(=O)O[C@@H]3C)c(F)cn1 [Compound 74, 2-((S)-2,6-dioxopiperidin-3-yl)-4-(((R)-6-(5-fluoro-2-methylpyridin-4-yl)-1,4-dimethyl-2-oxo-1,4-dihydro-2H-benzo[d][1,3]oxazin-7-yl)amino)isoindoline-1,3-dione] | ++ (++ = 100 ≤ AUC < 150)
8 nM | 13 nM | Cc1cc(-c2cc3c(cc2Nc2cccc4c2C(=O)N(C2CCC(=O)NC2=O)C4=O)N(C)C(=O)CC3(C)C)ccn1 (stereo not drawn) [Compound 83, 2-(2,6-dioxopiperidin-3-yl)-4-((1,4,4-trimethyl-6-(2-methylpyridin-4-yl)-2-oxo-1,2,3,4-tetrahydroquinolin-7-yl)amino)isoindoline-1,3-dione] | + (+ = 15 ≤ AUC < 100)
7 nM | 19 nM | CC(=O)N1CCC(c2cc3c(cc2Nc2cccc4c2C(=O)N(C2CCC(=O)NC2=O)C4=O)N(C)C(=O)CC3)CC1 (stereo not drawn) [Compound 84, 4-((6-(1-acetylpiperidin-4-yl)-1-methyl-2-oxo-1,2,3,4-tetrahydroquinolin-7-yl)amino)-2-(2,6-dioxopiperidin-3-yl)isoindoline-1,3-dione] | +++ (+++ = AUC ≥ 150)
9 nM | 48 nM | Cc1cc(-c2cc3c(cc2Nc2cccc4c2C(=O)N([C@H]2CCC(=O)NC2=O)C4=O)N(C)C(=O)[C@@H](C)C3)ccn1 [Compound 86, 4-(((S)-1,3-dimethyl-6-(2-methylpyridin-4-yl)-2-oxo-1,2,3,4-tetrahydroquinolin-7-yl)amino)-2-((S)-2,6-dioxopiperidin-3-yl)isoindoline-1,3-dione] | + (+ = 15 ≤ AUC < 100)
12 nM | 16 nM | Cc1cc(-c2cc3c(cc2Nc2cccc4c2C(=O)N([C@H]2CCC(=O)NC2=O)C4=O)N(C)C(=O)[C@H](C)C3)ccn1 [Compound 87, 4-(((R)-1,3-dimethyl-6-(2-methylpyridin-4-yl)-2-oxo-1,2,3,4-tetrahydroquinolin-7-yl)amino)-2-((S)-2,6-dioxopiperidin-3-yl)isoindoline-1,3-dione] | + (+ = 15 ≤ AUC < 100)
8 nM | 60 nM | Cc1cc(-c2cc3c(cc2Nc2cccc4c2C(=O)N([C@H]2CCC(=O)NC2=O)C4=O)N(C2CC2)C(=O)CC3)ccn1 [Compound 88, (S)-4-((1-cyclopropyl-6-(2-methylpyridin-4-yl)-2-oxo-1,2,3,4-tetrahydroquinolin-7-yl)amino)-2-(2,6-dioxopiperidin-3-yl)isoindoline-1,3-dione] | + (+ = 15 ≤ AUC < 100)
